Test results taken from US20050282755A1, “Compositions having antimicrobial activity and uses thereof” (priority 2004, published 2005).
In brackets after ≈: the same amount, converted by molar mass. Non-standard residues stand in square brackets, D forms with d. Residues, ends and D or L forms follow the SMILES beside them. *: point of attachment. Lauroyl = CCCCCCCCCCCC(=O)*; Decanoyl = CCCCCCCCCC(=O)*; Octanoyl = CCCCCCCC(=O)*

Tests used:
Format in all cases: cell-based
[1] = test system: Propionibacterium acnes ATCC 6919; experiment: MIC, agar dilution method NCCLS M11-A6, Brucella agar, anaerobic (Table 9, superscript c); settings: ATCC 6919
Protocol: A bacterial suspension was prepared to allow for a final inoculum on the plate of 1.5×10^8 CFU/milliliter. After the suspension absorbed into the agar surface, the plates were incubated for 48-96 hours at 37° C. in a GasPak anaerobic chamber. The lowest concentration of peptide that contained no colony growth on the agar plate was determined as the MIC. MIC values that utilized this method of MIC determination are indicated in Table 9 with a superscript letter “c.”

[2] = test system: Staphylococcus aureus ATCC 29213; experiment: MIC, NCCLS M7-A6 broth microdilution, cation-adjusted Mueller Hinton broth (Table 9, no superscript); settings: ATCC 29213
Outline: (§1)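 Log-phase bacteria were added to wells containing peptide in cation-adjusted Mueller Hinton broth at a final 5×10^5 to 1×10^6 CFU/milliliter. Plates then sat overnight at 37° C. Wells were scored visually for turbidity against a peptide-free control.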

[3] = test system: Escherichia coli ATCC 25922; experiment: MIC, NCCLS M7-A6 broth microdilution (Table 9, no superscript); settings: ATCC 25922
Outline: as §1

Salmonella dublin (Lane) = experiment: as above
Outline: as §1

[4] = test system: Staphylococcus epidermidis ATCC 12228; experiment: as above; settings: ATCC 12228
Outline: as §1

[5] = test system: Pseudomonas aeruginosa ATCC 27853; experiment: as above; settings: ATCC 27853
Outline: as §1

Row | SMILES | MIC P. acnes [1] | MIC S. aureus [2] | MIC E. coli [3] | MIC S. dublin (Salmonella dublin (Lane)) | MIC S. epidermidis [4] | MIC P. aeruginosa [5]
1 | CCCCCCCC(=O)N[C@H](CCCNC(=N)N)C(=O)N[C@H](CO)C(=O)N[C@H](CCCNC(=N)N)C(=O)N[C@H](Cc1c[nH]c2ccccc12)C(=O)N[C@H](CCCNC(=N)N)C(=O)N[C@H](CC(=O)O)C(=O)N[C@@H](C(=O)N[C@H](C)C(=O)N[C@H](CCCNC(=N)N)C(=O)N[C@H](CC(N)=O)C(=O)N[C@H](Cc1ccccc1)C(=O)N[C@H](CCSC)C(=O)N[C@H](CCCNC(=N)N)C(N)=O)C(C)C [Peptide 207, Octyl-rsrwrdvarnfmr-NH2] (Octanoyl-[dR][dS][dR][dW][dR][dD][dV][dA][dR][dN][dF][dM][dR]-NH2) | 16c ug/mL | 16 µg/mL (≈ 8.53 µM) | 32 µg/mL (≈ 17.1 µM) | 64 µg/mL (≈ 34.1 µM) | 4 µg/mL (≈ 2.13 µM) | 32 µg/mL (≈ 17.1 µM)
2 | CCCCCCCCCC(=O)N[C@H](CCCNC(=N)N)C(=O)N[C@H](CO)C(=O)N[C@H](CCCNC(=N)N)C(=O)N[C@H](Cc1c[nH]c2ccccc12)C(=O)N[C@H](CCCNC(=N)N)C(=O)N[C@H](CC(=O)O)C(=O)N[C@@H](C(=O)N[C@H](C)C(=O)N[C@H](CCCNC(=N)N)C(=O)N[C@H](CC(N)=O)C(=O)N[C@H](Cc1ccccc1)C(=O)N[C@H](CCSC)C(=O)N[C@H](CCCNC(=N)N)C(N)=O)C(C)C [Peptide 208, Decanyl-rsrwrdvarnfmr-NH2] (Decanoyl-[dR][dS][dR][dW][dR][dD][dV][dA][dR][dN][dF][dM][dR]-NH2) | 2c ug/mL | 4 µg/mL (≈ 2.1 µM) | >64 µg/mL | 8 µg/mL (≈ 4.2 µM) | >64 µg/mL | >64 µg/mL
3 | CCCCCCCCCCCC(=O)N[C@H](CCCNC(=N)N)C(=O)N[C@H](CO)C(=O)N[C@H](CCCNC(=N)N)C(=O)N[C@H](Cc1c[nH]c2ccccc12)C(=O)N[C@H](CCCNC(=N)N)C(=O)N[C@H](CC(=O)O)C(=O)N[C@@H](C(=O)N[C@H](C)C(=O)N[C@H](CCCNC(=N)N)C(=O)N[C@H](CC(N)=O)C(=O)N[C@H](Cc1ccccc1)C(=O)N[C@H](CC(C)C)C(=O)N[C@H](CCCNC(=N)N)C(N)=O)C(C)C [Peptide 210, Lauryl-rsrwrdvarnflr-NH2] (Lauroyl-[dR][dS][dR][dW][dR][dD][dV][dA][dR][dN][dF][dL][dR]-NH2) | 8c ug/mL | 4 µg/mL (≈ 2.09 µM) | 8 µg/mL (≈ 4.18 µM) | 4 µg/mL (≈ 2.09 µM) | 2 µg/mL (≈ 1.05 µM) | 16 µg/mL (≈ 8.36 µM)
4 | CCCCCCCCCCCC(=O)N[C@H](CCCNC(=N)N)C(=O)N[C@H](CO)C(=O)N[C@H](CCCNC(=N)N)C(=O)N[C@H](Cc1c[nH]c2ccccc12)C(=O)N[C@H](CCCNC(=N)N)C(=O)N[C@H](CC(=O)O)C(=O)N[C@@H](C(=O)N[C@H](C)C(=O)N[C@H](CCCNC(=N)N)C(=O)N[C@H](CC(N)=O)C(=O)N[C@H](Cc1ccccc1)C(=O)N[C@H](CC(C)C)C(N)=O)C(C)C [Peptide 211, Lauryl-rsrwrdvarnfl-NH2] (Lauroyl-[dR][dS][dR][dW][dR][dD][dV][dA][dR][dN][dF][dL]-NH2) | 4c ug/mL | 4 µg/mL (≈ 2.28 µM) | 8 µg/mL (≈ 4.55 µM) | 4 µg/mL (≈ 2.28 µM) | 2 µg/mL (≈ 1.14 µM) | 64 µg/mL (≈ 36.4 µM)
5 | CCCCCCCCCCCC(=O)N[C@H](CO)C(=O)N[C@H](CCCNC(=N)N)C(=O)N[C@H](Cc1c[nH]c2ccccc12)C(=O)N[C@H](CCCNC(=N)N)C(=O)N[C@H](CC(=O)O)C(=O)N[C@@H](C(=O)N[C@H](C)C(=O)N[C@H](CCCNC(=N)N)C(=O)N[C@H](CC(N)=O)C(=O)N[C@H](Cc1ccccc1)C(=O)N[C@H](CC(C)C)C(=O)N[C@H](CCCNC(=N)N)C(N)=O)C(C)C [Peptide 212, Lauryl-srwrdvarnflr-NH2] (Lauroyl-[dS][dR][dW][dR][dD][dV][dA][dR][dN][dF][dL][dR]-NH2) | 2c ug/mL | 4 µg/mL (≈ 2.28 µM) | 8 µg/mL (≈ 4.55 µM) | 4 µg/mL (≈ 2.28 µM) | 2 µg/mL (≈ 1.14 µM) | 64 µg/mL (≈ 36.4 µM)
6 | CCCCCCCCCCCC(=O)N[C@H](CCCNC(=N)N)C(=O)N[C@H](CCCCN)C(=O)N[C@H](CCCNC(=N)N)C(=O)N[C@H](Cc1c[nH]c2ccccc12)C(=O)N[C@H](CCCNC(=N)N)C(=O)N[C@H](CC(=O)O)C(=O)N[C@@H](C(=O)N[C@H](C)C(=O)N[C@H](CCCNC(=N)N)C(=O)N[C@H](CC(N)=O)C(=O)N[C@H](Cc1ccccc1)C(=O)N[C@H](CC(C)C)C(=O)N[C@H](CCCNC(=N)N)C(N)=O)C(C)C [Peptide 219, Lauryl-rkrwrdvarnflr-NH2] (Lauroyl-[dR][dK][dR][dW][dR][dD][dV][dA][dR][dN][dF][dL][dR]-NH2) | 16c ug/mL | 4 µg/mL (≈ 2.05 µM) | 8 µg/mL (≈ 4.09 µM) | 4 µg/mL (≈ 2.05 µM) | 2 µg/mL (≈ 1.02 µM) | 4 µg/mL (≈ 2.05 µM)
7 | CCCCCCCCCCCC(=O)N[C@H](CCCNC(=N)N)C(=O)N[C@H](CCCCN)C(=O)N[C@H](CCCNC(=N)N)C(=O)N[C@H](Cc1c[nH]c2ccccc12)C(=O)N[C@H](CCCNC(=N)N)C(=O)N[C@H](CCC(=O)O)C(=O)N[C@@H](C(=O)N[C@H](C)C(=O)N[C@H](CCCNC(=N)N)C(=O)N[C@H](CC(N)=O)C(=O)N[C@H](Cc1ccccc1)C(=O)N[C@H](CC(C)C)C(=O)N[C@H](CCCNC(=N)N)C(N)=O)C(C)C [Peptide 220, Lauryl-rkrwrevarnflr-NH2] (Lauroyl-[dR][dK][dR][dW][dR][dE][dV][dA][dR][dN][dF][dL][dR]-NH2) | 16c ug/mL | 2 µg/mL (≈ 1.02 µM) | 4 µg/mL (≈ 2.03 µM) | 2 µg/mL (≈ 1.02 µM) | 1 µg/mL (≈ 0.508 µM) | 8 µg/mL (≈ 4.06 µM)
8 | CCCCCCCCCCCC(=O)N[C@H](CCCNC(=N)N)C(=O)N[C@H](C)C(=O)N[C@H](CCCNC(=N)N)C(=O)N[C@H](Cc1c[nH]c2ccccc12)C(=O)N[C@H](CCCNC(=N)N)C(=O)N[C@H](CC(=O)O)C(=O)N[C@@H](C(=O)N[C@H](C)C(=O)N[C@H](CCCNC(=N)N)C(=O)N[C@H](CC(N)=O)C(=O)N[C@H](Cc1ccccc1)C(=O)N[C@H](CC(C)C)C(=O)N[C@H](CCCNC(=N)N)C(N)=O)C(C)C [Peptide 224, Lauryl-rarwrdvarnflr-NH2] (Lauroyl-[dR][dA][dR][dW][dR][dD][dV][dA][dR][dN][dF][dL][dR]-NH2) | 32c ug/mL | 2 µg/mL (≈ 1.05 µM) | 8 µg/mL (≈ 4.22 µM) | 4 µg/mL (≈ 2.11 µM) | 2 µg/mL (≈ 1.05 µM) | 16 µg/mL (≈ 8.43 µM)
9 | CCCCCCCCCCCC(=O)N[C@H](CCCNC(=N)N)C(=O)N[C@H](CO)C(=O)N[C@H](CCCNC(=N)N)C(=O)N[C@H](Cc1c[nH]c2ccccc12)C(=O)N[C@H](CCCNC(=N)N)C(=O)N[C@H](C)C(=O)N[C@@H](C(=O)N[C@H](C)C(=O)N[C@H](CCCNC(=N)N)C(=O)N[C@H](CC(N)=O)C(=O)N[C@H](Cc1ccccc1)C(=O)N[C@H](CC(C)C)C(=O)N[C@H](CCCNC(=N)N)C(N)=O)C(C)C [Peptide 225, Lauryl-rsrwravarnflr-NH2] (Lauroyl-[dR][dS][dR][dW][dR][dA][dV][dA][dR][dN][dF][dL][dR]-NH2) | 8c ug/mL | 1 µg/mL (≈ 0.535 µM) | 16 µg/mL (≈ 8.56 µM) | 1 µg/mL (≈ 0.535 µM) | 2 µg/mL (≈ 1.07 µM) | 16 µg/mL (≈ 8.56 µM)
10 | CCCCCCCCCCCC(=O)N[C@H](CCCNC(=N)N)C(=O)N[C@H](CO)C(=O)N[C@H](CCCNC(=N)N)C(=O)N[C@H](Cc1c[nH]c2ccccc12)C(=O)N[C@H](CCCNC(=N)N)C(=O)N[C@H](CC(=O)O)C(=O)N[C@@H](C(=O)N[C@H](C)C(=O)N[C@H](CCCNC(=N)N)C(=O)N[C@H](C)C(=O)N[C@H](Cc1ccccc1)C(=O)N[C@H](CC(C)C)C(=O)N[C@H](CCCNC(=N)N)C(N)=O)C(C)C [Peptide 226, Lauryl-rsrwrdvaraflr-NH2] (Lauroyl-[dR][dS][dR][dW][dR][dD][dV][dA][dR][dA][dF][dL][dR]-NH2) | 32c ug/mL | 8 µg/mL (≈ 4.28 µM) | 16 µg/mL (≈ 8.55 µM) | 16 µg/mL (≈ 8.55 µM) | 4 µg/mL (≈ 2.14 µM) | >64 µg/mL
11 | CCCCCCCCCCCC(=O)N[C@H](CCCNC(=N)N)C(=O)N[C@H](CC(C)C)C(=O)N[C@H](CCCNC(=N)N)C(=O)N[C@H](Cc1c[nH]c2ccccc12)C(=O)N[C@H](CCCNC(=N)N)C(=O)N[C@H](CCC(=O)O)C(=O)N[C@@H](C(=O)N[C@H](C)C(=O)N[C@H](CCCNC(=N)N)C(=O)N[C@H](CC(C)C)C(=O)N[C@H](Cc1ccccc1)C(=O)N[C@H](CC(C)C)C(=O)N[C@H](CCCNC(=N)N)C(N)=O)C(C)C [Peptide 227, Lauryl-rlrwrevarlflr-NH2] (Lauroyl-[dR][dL][dR][dW][dR][dE][dV][dA][dR][dL][dF][dL][dR]-NH2) | >64c ug/mL | 32 µg/mL (≈ 16.4 µM) | 64 µg/mL (≈ 32.8 µM) | 32 µg/mL (≈ 16.4 µM) | 32 µg/mL (≈ 16.4 µM) | >64 µg/mL
